# System: tracheal smooth muscle
# Assay: Dilating action to contraction of tracheal smooth muscle (potassium chloride-induced contraction of isolated trachea segment, Magnus tube)
# Type: cell-based
# Details: 30 μM test substance, contraction induced by 72.7 mM potassium chloride, guinea pig (Hartley, male) trachea segment; for inhibition at 30 µM: Cavia porcellus, read-out: Activity (suppressing rate for contraction by potassium chloride)
# Method: Each sample is tested by using two segment obtained from one animal; the trachea was removed from a guinea pig (Hartley, male, seven weeks age) and was made the segment, 6 mm in length. The segment was suspended in a Magnus tube containing a physiological salt solution of 37° C. with a flow of mixed gas consisting of 95% oxygen and 5% carbon dioxide gas. A base-line tension of 1 g was applied to the segment and, after tension of the sample became stable, the solution was exchanged with a solution containing 72.7 mM of potassium chloride to induce a contraction. When tension of the contraction by potassium chloride became stable, a compound of the formula (1) was added as a test substance to measure the change in the tension. The test substance was dissolved in dimethyl sulfoxide and added thereto. Incidentally, at the stage of addition, the final concentration of dimethyl sulfoxide was made not more than 0.3%. Changes in the tension was recorded on a recorder (R-64V, Rika Denki) after introducing to an amplifier for strain pressure (AP-621G, Nippon Koden Kogyo) via an FD pickup transducer (TB-611T, Nippon Koden Kogyo). Tension before addition of potassium chloride was set as 0 while that after addition of potassium chloride was set as 100 and the suppressing rate for contraction by potassium chloride after addition of the test substance was expressed by a relative percentage whereby the activity was determined according to the following criteria.
# The Compound No. in the table is the same as that in the Production Examples.
Compound,inhibition at 30 µM,Activity (suppressing rate for contraction by potassium chloride)
"O=C1Cc2cc(Cl)cc(Cl)c2Oc2cc(O)cc(O)c21 [Compound 34, 2,4-dichloro-7,9-dihydroxy-10,11-dihydrodibenz[b,f]oxepin-10-one]",≥ 50%,
"CCc1ccc2c(c1)CC(=O)c1c(O)cc(O)cc1O2 [Compound 112, 2-ethyl-7,9-dihydroxy-10,11-dihydrodibenzo[b,f]oxepin-10-one]",≥ 50%,
"Oc1cc(O)c2c(c1)Oc1c(Cl)cccc1CC2 [Compound 37, 6-chloro-10,11-dihydrodibenz[b,f]oxepin-1,3-diol]",≥ 50%,
"O=C1Cc2cc([N+](=O)[O-])ccc2Oc2cc(O)cc(O)c21 [Compound 70, 2-nitro-7,9-dihydroxy-10,11-dihydrodibenz[b,f]oxepin-10-one]",≥ 50%,
"O=C1Cc2cc(C#CCCO)ccc2Oc2cc(O)cc(O)c21 [Compound 115, 2-(4-hydroxy-1-butynyl)-7,9-dihydroxy-10,11-dihydrodibenzo[b,f]oxepin-10-one]",≥ 50%,
"O=C1Cc2ccccc2Oc2c1ccc(O)c2O [Compound 8, 6,7-dihydroxy-10,11-dihydrodibenz[b,f]oxepin-10-one]",≤ 50%,
"O=C1Cc2ccc(Cl)cc2Oc2cc(O)cc(O)c21 [Compound 15, 3-chloro-7,9-dihydroxy-10,11-dihydrodibenz[b,f]oxepin-10-one]",≥ 50%,
"O=C1Cc2cccc(Cl)c2Oc2cc(O)cc(O)c21 [Compound 36, 4-chloro-7,9-dihydroxy-10,11-dihydrodibenz[b,f]oxepin-10-one]",≥ 50%,
"Oc1cc2c(cc1O)Sc1ccccc1CC2 [Compound 44, 10,11-dihydrodibenz[b,f]thiepin-2,3-diol]",≥ 50%,
"Nc1ccc2c(c1)CC(=O)c1c(O)cc(O)cc1O2 [Compound 71, 2-amino-7,9-dihydroxy-10,11-dihydrodibenz[b,f]oxepin-10-one]",≥ 50%,
"O=C1Cc2ccccc2Oc2cc(O)c(O)cc21 [Compound 13, 7,8-dihydroxy-10,11-dihydrodibenz[b,f]oxepin-10-one]",≤ 50%,
"O=C1Cc2ccc(F)cc2Oc2cc(O)cc(O)c21 [Compound 23, 3-fluoro-7,9-dihydroxy-10,11-dihydrodibenz[b,f]oxepin-10-one]",≥ 50%,
"CC(=O)c1ccc2c(c1)CCc1c(O)cc(O)cc1O2 [Compound 95, 8-acetyl-10,11-dihydrodibenzo[b,f]oxepin-1,3-diol]",≥ 50%,
"Cc1ccc2c(c1)CC(=O)c1cc(O)c(O)cc1S2 [Compound 104, 7,8-dihydroxy-2-methyl-10,11-dihydrodibenzo[b,f]thiepin-10-one]",≥ 50%,
"CCC(=O)c1ccc2c(c1)CCc1c(O)cc(O)cc1S2 [Compound 91, 8-propionyl-10,11-dihydrodibenzo[b,f]thiepin-1,3-diol]",≥ 50%,
"O=C1Cc2cc(F)ccc2Oc2cc(O)cc(O)c21 [Compound 29, 2-fluoro-7,9-dihydroxy-10,11-dihydrodibenz[b,f]oxepin-10-one]",≥ 50%,
"O=C1Cc2c(F)cccc2Oc2cc(F)c(F)cc21 [Compound 63, 1,7,8-trifluoro-10,11-dihydrodibenz[b,f]oxepin-10-one]",≥ 50%,
"Oc1cc(O)c2c(c1)Sc1ccccc1CC2 [Compound 81, 10,11-dihydrodibenzo[b,f]thiepin-1,3-diol]",≥ 50%,
"O=C1Cc2cc(Br)ccc2Oc2cc(O)cc(O)c21 [Compound 110, 2-bromo-7,9-dihydroxy-10,11-dihydrodibenzo[b,f]oxepin-10-one]",≥ 50%,
"O=C(O)Cc1ccc2c(c1)CCc1c(O)cc(O)cc1O2 [Compound 97, 7,9-dihydroxy-10,11-dihydrodibenzo[b,f]oxepin-2-acetic acid]",≤ 50%,
"Oc1cc(O)c2c(c1)Oc1ccccc1CC2 [Compound 12, 10,11-dihydrodibenz[b,f]oxepin-1,3-diol]",≥ 50%,
"CC(=O)c1c(O)c2c(c(C(C)=O)c1O)Sc1ccccc1CC2 [Compound 84, 2,4-diacetyl-10,11-dihydrodibenzo[b,f]thiepin-1,3-diol]",≥ 50%,
"Oc1cc2c(cc1O)Oc1ccccc1CC2 [Compound 14, 10,11-dihydrodibenz[b,f]oxepin-2,3-diol]",≤ 50%,
"O=C1Cc2c(F)cccc2Oc2cc(O)cc(O)c21 [Compound 49, 1-fluoro-7,9-dihydroxy-10,11-dihydrodibenz[b,f]oxepin-10-one]",≥ 50%,
"Nc1ccc2c(c1)CCc1c(O)cc(O)cc1O2 [Compound 77, 8-amino-10,11-dihydrodibenz[b,f]oxepin-1,3-diol]",≤ 50%,

Compound,inhibition at 30 µM,Activity (suppressing rate for contraction by potassium chloride)
"Oc1cc(O)c2c(c1)Oc1cc(Cl)ccc1CC2 [Compound 16, 7-chloro-10,11-dihydrodibenz[b,f]oxepin-1,3-diol]",≤ 50%,
"O=C1Cc2cc(C#CCCCO)ccc2Oc2cc(O)cc(O)c21 [Compound 116, 2-(5-hydroxy-1-pentynyl)-7,9-dihydroxy-10,11-dihydrodibenzo[b,f]oxepin-10-one]",≥ 50%,
"CC(=O)c1ccc2c(c1)C=Cc1cc(O)c(O)cc1S2 [Compound 92, 8-acetyldibenzo[b,f]thiepin-2,3-diol]",≥ 50%,
"CSc1ccc2c(c1)CC(=O)c1c(O)cc(O)cc1O2 [Compound 108, 2-thiomethyl-7,9-dihydroxy-10,11-dihydrodibenzo[b,f]oxepin-10-one]",≥ 50%,
"O=C1Cc2ccccc2Oc2c(O)c(O)cc(O)c21 [Compound 2, 6,7,9-trihydroxy-10,11-dihydrodibenz[b,f]oxepin-10-one]",≤ 50%,
"CC(=O)c1ccc2c(c1)CCc1c(O)cc(O)cc1S2 [Compound 86, 8-acetyl-10,11-dihydrodibenzo[b,f]thiepin-1,3-diol]",≥ 50%,
"O=C1Cc2ccccc2Oc2cc(O)c(O)c(O)c21 [Compound 9, 7,8,9-trihydroxy-10,11-dihydrodibenz[b,f]oxepin-10-one]",≤ 50%,
"CC(=O)c1c(O)cc(O)c2c1Sc1ccccc1CC2 [Compound 85, 4-acetyl-10,11-dihydrodibenzo[b,f]thiepin-1,3-diol]",≥ 50%,
"O=C1Cc2ccc(Cl)c(Cl)c2Oc2cc(O)cc(O)c21 [Compound 27, 3,4-dichloro-7,9-dihydroxy-10,11-dihydrodibenz[b,f]oxepin-10-one]",≥ 50%,
O=C1Cc2cc(C#CCO)ccc2Oc2cc(O)cc(O)c21 [Compound 114],≥ 50%,
"CC(O)c1ccc2c(c1)CCc1c(O)cc(O)cc1O2 (stereo not shown) [Compound 96, 8-(1-hydroxyethyl)-10,11-dihydrodibenzo[b,f]oxepin-1,3-diol]",≥ 50%,
"Oc1cc(O)c2c(c1)Oc1ccc(C(F)(F)F)cc1CC2 [Compound 39, 8-trifluoromethyl-10,11-dihydrodibenz[b,f]oxepin-1,3-diol]",≥ 50%,
"CCC(=O)c1c(O)cc(O)c2c1Sc1ccccc1CC2 [Compound 90, 4-propionyl-10,11-dihydrodibenzo[b,f]thiepin-1,3-diol]",≥ 50%,
"O=C1Cc2cc(Cl)ccc2Oc2cc(O)cc(O)c21 [Compound 19, 2-chloro-7,9-dihydroxy-10,11-dihydrodibenz[b,f]oxepin-10-one]",≥ 50%,
"Oc1cc(O)c2c(c1)Oc1cc(F)ccc1CC2 [Compound 24, 7-fluoro-10,11-dihydrodibenz[b,f]oxepin-1,3-diol]",≥ 50%,
"Oc1cc(O)c2c(c1)Oc1ccc(Cl)cc1CC2 [Compound 20, 8-chloro-10,11-dihydrodibenz[b,f]oxepin-1,3-diol]",≤ 50%,
"O=C1Cc2ccccc2Oc2c(O)ccc(O)c21 [Compound 7, 6,9-dihydroxy-10,11-dihydrodibenz[b,f]oxepin-10-one]",≥ 50%,
"Oc1cc(O)c2c(c1)Oc1c(ccc(Cl)c1Cl)CC2 [Compound 28, 6,7-dichloro-10,11-dihydrodibenz[b,f]oxepin-1,3-diol]",≤ 50%,
"CC(=O)Nc1ccc2c(c1)CC(=O)c1c(O)cc(O)cc1O2 [Compound 94, N-acetyl-2-amino-7,9-dihydroxy-10,11-dihydrodibenzo[b,f]oxepin-10-one]",≥ 50%,
"CCc1ccc2c(c1)CC(=O)c1c(O)cc(OC)cc1O2 [Compound 111, 2-ethyl-9-hydroxy-7-methoxy-10,11-dihydrodibenzo[b,f]oxepin-10-one]",≥ 50%,
"2-thiomethyl-7,9-dihydroxy-10,11-dihydrodibenzo[b,f]oxepin-10-one S-oxide [Compound 109]",,− (no suppressing action of not less than 50% was achieved at 30 μM)
"CC(C)c1ccc2c(c1)CC(=O)c1cc(O)c(O)cc1S2 [Compound 106, 7,8-dihydroxy-2-(2-propyl)-10,11-dihydrodibenzo[b,f]thiepin-10-one]",≥ 50%,
"Oc1cc(O)c2c(c1)Oc1c(Cl)cc(Cl)cc1CC2 [Compound 35, 6,8-dichloro-10,11-dihydrodibenz[b,f]oxepin-1,3-diol]",≤ 50%,
"O=C1Cc2cc(O)c(O)cc2Oc2cc(O)cc(O)c21 [Compound 40, 2,3,7,9-tetrahydroxy-10,11-dihydrodibenz[b,f]oxepin-10-one]",≤ 50%,
